Laboratory results: patent US20260085067A1, “CYCLIC SULFONAMIDE RIBONUCLEOTIDE REDUCTASE (RNR) INHIBITORS AND USES THEREOF” (Boundless Bio, Inc., priority 2022, published 2026)

Columns and labels:
[1] = target: T1, RNR (RNR1:RNR2 1:1) (Homo sapiens, UniProt P23921); assay: RNR enzyme activity, rapid-fire mass spectrometry (RF/MS) assay; format: biochemical; settings: [RNR] 50 nM, 1:1 RNR1:RNR2; CDP 5 μM; ATP 1 mM; 37° C., 45 min; compounds screened up to 50 μM
T1 sequence (P23921 1-792): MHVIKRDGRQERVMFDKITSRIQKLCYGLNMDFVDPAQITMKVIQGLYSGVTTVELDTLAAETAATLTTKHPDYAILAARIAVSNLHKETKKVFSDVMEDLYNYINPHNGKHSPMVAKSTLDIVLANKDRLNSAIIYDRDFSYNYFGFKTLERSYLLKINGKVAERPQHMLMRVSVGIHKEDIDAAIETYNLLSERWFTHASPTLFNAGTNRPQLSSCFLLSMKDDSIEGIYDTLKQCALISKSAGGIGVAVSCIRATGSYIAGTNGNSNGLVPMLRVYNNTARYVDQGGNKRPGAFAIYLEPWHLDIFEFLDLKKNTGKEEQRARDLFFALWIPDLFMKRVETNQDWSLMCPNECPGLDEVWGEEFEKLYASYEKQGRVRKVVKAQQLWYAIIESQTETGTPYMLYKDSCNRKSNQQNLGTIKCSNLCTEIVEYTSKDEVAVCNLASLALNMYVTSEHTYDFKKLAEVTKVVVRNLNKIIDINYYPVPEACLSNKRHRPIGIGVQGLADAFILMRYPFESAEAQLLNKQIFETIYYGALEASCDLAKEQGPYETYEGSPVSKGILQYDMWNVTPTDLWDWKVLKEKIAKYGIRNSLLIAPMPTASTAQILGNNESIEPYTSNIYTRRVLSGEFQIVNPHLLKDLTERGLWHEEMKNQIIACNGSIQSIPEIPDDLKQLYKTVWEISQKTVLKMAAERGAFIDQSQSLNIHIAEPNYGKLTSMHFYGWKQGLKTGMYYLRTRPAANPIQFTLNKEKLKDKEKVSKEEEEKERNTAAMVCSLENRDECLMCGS
Description: A rapid-fire mass spectrometry (RF/MS) assay was used to assess RNR enzyme activity using a 384 well plate and a robotic platform.
The plate layout included two validated reference compounds (Triapine (3-AP) and Hydroxyurea (HU)): • A dose response in duplicate; top concentration: 5 μM (3-AP) and 250 μM (HU), semi-log dilutions. • Spike wells in triplicate randomly spotted at four concentrations: • 250 μM, 100 μM, 30 μM and 2 μM for HU • 5 μM, 2 μM, 0.6 μM and 0.04 μM for 3-AP
First, the multidrop pipes were saturated for 30 minutes with enzymatic solution. Then 30 μL of Stop solution was distributed in column 24. Next, 15 μL of enzyme was distributed in column 1 to 24. Next, a pre-incubation step of 15 minutes at room temperature occurred, followed by distribution of 15 μL of substrate solution (column 1 to 24). Next, the plate was incubated for 45 minutes at 37° C. 30 μL of Stop solution was then distributed to columns 1 to 23.
The final parameters for the enzyme reactions were: • Incubation: 37° C., 45 min • [CDP]: 5 μM; [ATP]: 1 mM; [NADPH]: No • [RNR]final: 50 nM with 1:1 (RNR1:RNR2) ratio • Final volume: 30 μL • Stop solution: 6% HCOOH in water

[2] = tested on: pCHK1 (S345) in Colo320 DM cells; assay: Alphalisa assay, detection of pCHK1 (S345) in Colo320 DM cells; format: cell-based, human; settings: Homo sapiens, COLO 320DM, compound overnight (approximately 16 hours)
Description: Colo320 DM cells (ATCC #CCL-220, derived from human colorectal adenocarcinoma, Dukes' type C) were seeded on a […], cell culture treated assay plate at a density of 50,000 cells/well in 200 μL of RPMI-1640 media supplemented with 10% Fetal Bovine Serum and incubated at 37° C. overnight. The following day, test compound dilutions were added directly to the plated cells by a Tecan digital dispenser to a final DMSO concentration of <0.5%. and incubated at 37° C. overnight (approximately 16 hours). The following day all cell culture media was removed from the cells. 75 μL of 1×AlphaLisa lysis buffer was added to each well and plates were agitated on a shaker for 30 minutes at room temperature. The lysis of cells and detection of pCHK1 (S345) were performed with reagents contained within the AlphaLisa Sure Fire assay kit (Perkin Elmer #ALSU-PCHK1-A) according to the manufacturer's instructions. 10 μL of each lysate was then transferred to a white, 384-well assay plate (Perkin Elmer #6008280). 5 μL of Acceptor mix was then added to each well of lysate in the white, 384-well assay plate and incubated in the dark at room temperature for 60 minutes. 5 μL of Donor mix was then added to each well of the white, 384-well assay plate in subdued light and incubated at room temperature for 60 minutes. Plates were read on an Alpha Technology-compatible plate reader using standard AlphaLisa settings.

SMILES | IC50 [1] | IC50 [2]
Cc1ccc(F)c([C@@H](C)[C@@H](c2n[nH]c(=O)o2)N2CN([C@@H]3CCOC[C@H]3F)c3cc(Cl)ccc3S2(=O)=O)c1C [Example 97, 5-((1S,2R)-1-(6-chloro-4-((3S,4R)-3-fluorotetrahydro-2H-pyran-4-yl)-1,1-dioxido-3,4-dihydro-2H-benzo[e][1,2,4]thiadiazin-2-yl)-2-(6-fluoro-2,3-dimethylphenyl)propyl)-1,3,4-oxadiazol-2 (3H)-one] | < 20 nM | ≤ 1000 nM
Cc1ccc(F)c([C@@H](C)[C@@H](c2n[nH]c(=O)o2)N2CN(CC3COC3)c3cc(Cl)ccc3S2(=O)=O)c1C [Example 83, 5-((1S,2R)-1-(6-chloro-4-(oxetan-3-ylmethyl)-1,1-dioxido-3,4-dihydro-2H-benzo[e][1,2,4]thiadiazin-2-yl)-2-(6-fluoro-2,3-dimethylphenyl)propyl)-1,3,4-oxadiazol-2 (3H)-one] | < 20 nM | ≤ 1000 nM
Cc1ccc(F)c([C@@H](C)[C@@H](c2n[nH]c(=O)o2)N2CN(CCCO)c3nc(Cl)ccc3S2(=O)=O)c1C [Example 82, 5-[(1S,2R)-1-[6-chloro-4-(3-hydroxypropyl)-1,1-dioxo-3H-pyrido[2,3-e][1,2,4]thiadiazin-2-yl]-2-(6-fluoro-2,3-dimethyl-phenyl)propyl]-3H-1,3,4-oxadiazol-2-one] | < 20 nM | ≤ 1000 nM
COC(C)(C)CN1CN([C@H](c2n[nH]c(=O)o2)[C@H](C)c2c(F)ccc(C)c2C)S(=O)(=O)c2ccc(Cl)cc21 [Example 98, 5-((1S,2R)-1-(6-chloro-4-(2-methoxy-2-methylpropyl)-1,1-dioxido-3,4-dihydro-2H-benzo[e][1,2,4]thiadiazin-2-yl)-2-(6-fluoro-2,3-dimethylphenyl)propyl)-1,3,4-oxadiazol-2 (3H)-one] | < 20 nM | ≤ 1000 nM
COC(=O)c1cc(Cl)cc2c1S(=O)(=O)N([C@H](c1n[nH]c(=O)o1)[C@H](C)c1c(F)ccc(C)c1C)CCO2 [Example 18, methyl 7-chloro-2-((1S,2R)-2-(6-fluoro-2,3-dimethylphenyl)-1-(5-oxo-4,5-dihydro-1,3,4-oxadiazol-2-yl)propyl)-3,4-dihydro-2H-benzo[b][1,4,5]oxathiazepine-9-carboxylate 1,1-dioxide] | 100 to 1000 nM | 10000 to 50000 nM
Cc1ccc(F)c([C@@H](C)[C@@H](c2n[nH]c(=O)o2)N2CN([C@H]3CCNC3)c3cc(Cl)ccc3S2(=O)=O)c1C [Example 59, 5-((1S,2R)-1-(6-chloro-1,1-dioxido-4-((S)-pyrrolidin-3-yl)-3,4-dihydro-2H-benzo[e][1,2,4]thiadiazin-2-yl)-2-(6-fluoro-2,3-dimethylphenyl)propyl)-1,3,4-oxadiazol-2 (3H)-one] | < 20 nM | 5000 to 10000 nM
Cc1ccc(F)c([C@@H](C)[C@@H](c2n[nH]c(=O)o2)N2CN(C3CCCOC3)c3cc(Cl)ccc3S2(=O)=O)c1C (stereo in doubt) [Example 44, 5-((1S,2R)-1-(6-chloro-1,1-dioxido-4-((R)-tetrahydro-2H-pyran-3-yl)-3,4-dihydro-2H-benzo[e][1,2,4]thiadiazin-2-yl)-2-(6-fluoro-2,3-dimethylphenyl)propyl)-1,3,4-oxadiazol-2 (3H)-one] | < 20 nM | ≤ 1000 nM
Cc1ccc(F)c([C@@H](C)[C@@H](c2n[nH]c(=O)o2)N2CN([C@@H]3CCNC3)c3cc(Cl)ccc3S2(=O)=O)c1C [Example 58, 5-((1S,2R)-1-(6-chloro-1,1-dioxido-4-((R)-pyrrolidin-3-yl)-3,4-dihydro-2H-benzo[e][1,2,4]thiadiazin-2-yl)-2-(6-fluoro-2,3-dimethylphenyl)propyl)-1,3,4-oxadiazol-2 (3H)-one] | 20 to 100 nM | 10000 to 50000 nM
Cc1ccc(F)c([C@@H](C)[C@@H](c2n[nH]c(=O)o2)N2CN([C@H]3CCN(C)C3)c3cc(Cl)ccc3S2(=O)=O)c1C [Example 86, 5-((1S,2R)-1-(6-chloro-4-((S)-1-methylpyrrolidin-3-yl)-1,1-dioxido-3,4-dihydro-2H-benzo[e][1,2,4]thiadiazin-2-yl)-2-(6-fluoro-2,3-dimethylphenyl)propyl)-1,3,4-oxadiazol-2 (3H)-one] | < 20 nM | 1000 to 5000 nM
Cc1ccc(F)c([C@@H](C)[C@@H](c2n[nH]c(=O)o2)N2CN(CC(F)F)c3nc(Cl)ccc3S2(=O)=O)c1C [Example 81, 5-[(1S,2R)-1-[6-chloro-4-(2,2-difluoroethyl)-1,1-dioxo-3H-pyrido[2,3-e][1,2,4]thiadiazin-2-yl]-2-(6-fluoro-2,3-dimethyl-phenyl)propyl]-3H-1,3,4-oxadiazol-2-one] | < 20 nM | ≤ 1000 nM
Cc1ccc(F)c([C@@H](C)[C@@H](c2n[nH]c(=O)o2)N2CN([C@@H]3CCN(CCF)C3)c3cc(Cl)ccc3S2(=O)=O)c1C [Example 104, 5-((1S,2R)-1-(6-chloro-4-((R)-1-(2-fluoroethyl)pyrrolidin-3-yl)-1,1-dioxido-3,4-dihydro-2H-benzo[e][1,2,4]thiadiazin-2-yl)-2-(6-fluoro-2,3-dimethylphenyl)propyl)-1,3,4-oxadiazol-2 (3H)-one] | < 20 nM | ≤ 1000 nM
Cc1ccc(F)c([C@@H](C)[C@@H](c2n[nH]c(=O)o2)N2CCOc3cc(Cl)ncc3S2(=O)=O)c1C [Example 27, 5-((1S,2R)-1-(7-chloro-1,1-dioxido-3,4-dihydro-2H-pyrido[4,3-b][1,4,5]oxathiazepin-2-yl)-2-(6-fluoro-2,3-dimethylphenyl)propyl)-1,3,4-oxadiazol-2 (3H)-one] | 1000 to 10000 nM | 10000 to 50000 nM
Cc1ccc(F)c([C@@H](C)[C@@H](c2n[nH]c(=O)o2)N2CN(C)c3c(ccc(Cl)c3C)S2(=O)=O)c1C [Example 32, 5-((1S,2R)-1-(6-chloro-4,5-dimethyl-1,1-dioxido-3,4-dihydro-2H-benzo[e][1,2,4]thiadiazin-2-yl)-2-(6-fluoro-2,3-dimethylphenyl)propyl)-1,3,4-oxadiazol-2 (3H)-one] | 20 to 100 nM | 10000 to 50000 nM
COC(=O)c1cc(Cl)cc2c1S(=O)(=O)N([C@H](c1n[nH]c(=O)o1)[C@H](C)c1c(F)ccc(C)c1C)CN2C [Example 19, methyl 6-chloro-2-((1S,2R)-2-(6-fluoro-2,3-dimethylphenyl)-1-(5-oxo-4,5-dihydro-1,3,4-oxadiazol-2-yl)propyl)-4-methyl-3,4-dihydro-2H-benzo[e][1,2,4]thiadiazine-8-carboxylate 1,1-dioxide] | 20 to 100 nM | 1000 to 5000 nM
[2H]C([2H])([2H])N1CN([C@H](c2n[nH]c(=O)o2)[C@H](C)c2c(F)ccc(C)c2C)S(=O)(=O)c2ccc(Cl)cc21 [Example 9, 5-((1S,2R)-1-(6-chloro-4-(methyl-d3)-1,1-dioxido-3,4-dihydro-2H-benzo[e][1,2,4]thiadiazin-2-yl)-2-(6-fluoro-2,3-dimethylphenyl)propyl)-1,3,4-oxadiazol-2 (3H)-one] | 20 to 100 nM | ≤ 1000 nM
